Broadly, the IC50 is the point on the concentration scale where inhibition reaches its midpoint. A higher IC50 goes with a need for much substance.

human PD-L1, sequence (Q9NZQ7 19-239): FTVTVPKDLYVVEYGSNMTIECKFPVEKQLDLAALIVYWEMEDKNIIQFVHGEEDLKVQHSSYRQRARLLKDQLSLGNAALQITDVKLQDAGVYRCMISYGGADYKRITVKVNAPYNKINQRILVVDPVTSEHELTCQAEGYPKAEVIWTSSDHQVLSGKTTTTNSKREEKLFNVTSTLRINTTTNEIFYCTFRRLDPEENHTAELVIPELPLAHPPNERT

One experiment addresses human PD-L1 (Homo sapiens (Human), UniProt Q9NZQ7). Put plainly: Enzyme-Linked Immunosorbent Assay (ELISA), PD-1/PD-L1 binding. To be noted: PD-1/PD-L1 ELISA, human PD-L1 coated plates, Table 1. The procedure:
96 Well plates were coated with […] of human PD-L1 (obtained from R&D) in PBS overnight at 4° C. The wells were then blocked with 2% BSA in PBS (W/V) with 0.05% TWEEN-20 for 1 hour at 37° C. The plates were washed 3 times with PBS/0.05% TWEEN-20 and the compounds were serial diluted (1:5) in dilution medium and added to the ELISA plates. Human PD-1 […] 0.31 μg/mL (ACRO Biosystems) were added and incubated for 1 hour at 37° C. then washed 3 times with PBS/0.05% TWEEN-20. A second block was performed with 2% BSA in PBS (W/V)/0.05% TWEEN-20 for 10 min at 37° C. and the plates were washed 3 times with PBS/0.05% TWEEN-20. Streptavidin-HRP was added for 1 hour at 37° C. then the plates were washed 3 times with PBS/0.05% TWEEN-20. TMB substrate was added and reacted for 20 min at 37° C. A stop solution (2 N aqueous H2SO4) was added. The absorbance was read at 450 nm using a micro-plate spectrophotometer.
Using the methods described in the Examples above, the compounds in Table 2 were prepared & tested for biological activity using the ELISA method described above.
`COc1cc(-c2cccc(-c3cccc(NC(=O)c4ccncn4)c3C)c2C)cc(F)c1CNCC(=O)O` [Example 1.339]: the half-inhibitory concentration (IC50) was in the range of 10 to 1000 nM. In the case of `COc1cc(-c2cccc(-c3cccc(NC(=O)c4c[nH]c(=O)n(C)c4=O)c3C)c2C)cc(F)c1CNC[C@@H]1CCC(=O)N1` [Example 1.201], the IC50 was under 10 nM.

`COc1cc(-c2cccc(-c3cccc(NC(=O)c4nccs4)c3C)c2C)cc(F)c1CN1CC(C(=O)O)C1` [Example 1.346]: the IC50 is 10 to 1000 nM. `COc1cc(-c2cccc(-c3cccc(NC(=O)C4CCNCC4)c3C)c2C)cc(F)c1CNCCO` [Example 1.397] showed an IC50 of 10 to 1000 nM. As to `COc1cc(-c2cccc(-c3cccc(NC(=O)c4ccnc(N)n4)c3C)c2C)cc(F)c1CN1CC(C(=O)O)C1` [Example 1.347], the IC50 was in the range of 10 to 1000 nM.

Regarding `COc1cc(-c2cccc(-c3cccc(NC(=O)c4ccccn4)c3C)c2C)cc(F)c1CN1CCC(C(=O)O)CC1` [Example 1.358], the IC50 was in the range of 10 to 1000 nM. Same read-out and setting: under `COc1cc(-c2cccc(-c3cccc(Nc4nccn5ccnc45)c3C)c2C)cc(F)c1CN1CC(C(=O)O)C1` [Example 1.249] stands 10 to 1000 nM; under `COc1cc(-c2cccc(-c3cccc(NC(=O)c4cc(N)ncn4)c3C)c2C)cc(F)c1CN1CC(C(=O)O)C1` [Example 1.320], under 10 nM. Turning to `COc1cc(-c2cccc(-c3cccc(NC(=O)C4CCCNC4)c3C)c2C)cc(F)c1CN` (centres unmarked) [Example 1.394], the IC50 was 1000 to 10000 nM. Compound `COc1cc(-c2cccc(-c3cccc(Nc4nccc5nccnc45)c3C)c2C)cc(F)c1CN[C@H](C)CO` [Example 1.207] showed an IC50 of under 10 nM.

In turn, `COc1cc(-c2cccc(-c3cccc(NC(=O)c4ccccn4)c3C)c2C)cc(F)c1CNCC(=O)O` [Example 1.385] had a 50% inhibitory concentration (IC50) of 10 to 1000 nM. `COc1cc(-c2cccc(-c3cccc(NC(=O)c4c[nH]c(=O)n(C)c4=O)c3C)c2C)cc(F)c1CNCC(=O)O` [Example 1.261] registered an IC50 of under 10 nM. Take `COc1cc(-c2cccc(-c3cccc(NC(=O)c4ccc(F)cn4)c3C)c2C)cc(F)c1CN1CC(C(=O)O)C1` [Example 1.359]: the IC50 lay within 10 to 1000 nM. Regarding `COc1cc(-c2cccc(-c3cccc(NC(=O)C4CN(CC(=O)O)CCO4)c3C)c2C)cc(F)c1CN` (centres unmarked) [Example 1.314], the IC50 is 10 to 1000 nM. Consider `COc1cc(-c2cccc(-c3cccc(NC(=O)c4cccn(CCO)c4=O)c3C)c2C)cc(F)c1CN1CC(C(=O)O)C1` [Example 1.277], for which the half-inhibitory concentration (IC50) is under 10 nM. `COc1cc(-c2cccc(-c3cccc(NC(=O)c4c[nH]c(=O)n(C)c4=O)c3C)c2C)cc(F)c1CNC(C)C` [Example 1.236] yielded an IC50 of under 10 nM. `COc1cc(-c2cccc(-c3cccc(NC(=O)c4c(C)cc(C)n(C)c4=O)c3C)c2C)cc(F)c1CN1CC(C(=O)O)C1` [Example 1.275] displayed an IC50 of 10 to 1000 nM. Still for that read-out and setting: for `COc1cc(-c2cccc(-c3cccc(NC(=O)c4c[nH]c(=O)n(C)c4=O)c3C)c2C)cc(F)c1CNC1COC1` [Example 1.216] the value was 10 to 1000 nM. The compound `COc1cc(-c2cccc(-c3cccc(NC(=O)C4CCCO4)c3C)c2C)cc(F)c1CN1CC(C(=O)O)C1` (centres unmarked) [Example 1.341] returned a half-maximal inhibitory concentration (IC50) of 10 to 1000 nM. In turn, `COc1cc(-c2cccc(-c3cccc(Nc4nccc5nccnc45)c3C)c2C)cc(F)c1CNCCO` [Example 1.238] yielded an IC50 of under 10 nM.

Still in this experiment, the particulars now being: human PD-1/PD-L1 ELISA, plates coated with human PD-L1.
As for `COc1cc(-c2cccc(-c3cccc(NC(=O)c4cn(C)c(=O)n(C)c4=O)c3Cl)c2C)cc(F)c1CN[C@@H]1CCOC[C@@H]1O` [Example 1.010], the IC50 was under 10 nM. `COc1cc(-c2cccc(-c3cccc(NC(=O)c4cn(C)c(=O)n(C)c4=O)c3C)c2F)cc(F)c1CNC[C@@H]1CCC(=O)N1` [Example 1.021] gave an IC50 of under 10 nM.

Compound `COc1cc(-c2cccc(-c3cccc(NC(=O)c4nn(C)c(=O)n(C)c4=O)c3C)c2C)cc(F)c1CNC[C@@H]1CCC(=O)N1C` [Example 1.056] returned an IC50 of under 10 nM.

Compound `COc1cc(-c2cccc(-c3cccc(NC(=O)c4cncn(C)c4=O)c3C)c2C)cc(F)c1CNCC1CCNC(=O)C1` (centres unmarked) [Example 1.051] registered an IC50 of under 10 nM. Same read-out and setting: under `CC[C@@H](O)NCc1c(F)cc(-c2cccc(-c3cccc(Nc4nccc5c4C(=O)N(C)CC5)c3C)c2C)cc1OC` [Example 1.190] stands under 10 nM; under `COc1cc(-c2cccc(-c3cccc(NC(=O)c4cn(C)c(=O)n(C)c4=O)c3C)c2Cl)cc(F)c1CN[C@H]1CCC(=O)NC1` [Example 1.018], under 10 nM; under `COc1cc(-c2cccc(-c3cccc(NC(=O)c4cncn(C)c4=O)c3C)c2C)cc(F)c1CN[C@@H]1CCC(=O)NC1` [Example 1.102], under 10 nM.

`COc1cc(-c2cccc(-c3cccc(Nc4nccc5nccnc45)c3C)c2C)cc(F)c1CNC(C)C` [Example 1.181] registered an IC50 of under 10 nM. Turning to `COc1cc(-c2cccc(-c3cccc(NC(=O)c4cn(C)c(=O)n(C)c4=O)c3Cl)c2Cl)cc(F)c1CNC[C@@H]1CCC(=O)N1` [Example 1.031], the half-inhibitory concentration (IC50) was under 10 nM. In turn, `COc1cc(-c2cccc(-c3cccc(Nc4nccc5c4C(=O)N(C)CC5)c3C)c2C)cc(F)c1CNC[C@@H]1CCC(=O)N1` [Example 1.193] had an IC50 of under 10 nM. With `COc1cc(-c2cccc(-c3cccc(Nc4nccc5nccnc45)c3C)c2C)cc(F)c1CNCc1c[nH]c(=O)[nH]c1=O` [Example 1.101], the IC50 was in the range of 10 to 1000 nM.

In turn, `COc1cc(-c2cccc(-c3cccc(NC(=O)c4nn(C)c(=O)n(C)c4=O)c3C)c2C)cc(F)c1CNC(C)C` [Example 1.065] returned an IC50 of under 10 nM.

The compound `COc1cc(-c2cccc(-c3cccc(NC(=O)c4cn(C)c(=O)n(C)c4=O)c3C)c2C)cc(F)c1CNC1CCOCC1` [Example 1.052] had a half-maximal inhibitory concentration (IC50) of under 10 nM. In turn, `COc1cc(-c2cccc(-c3cccc(NC(=O)c4nn(C)c(=O)n(C)c4=O)c3C)c2C)cc(F)c1CNCC(N)=O` [Example 1.064] displayed an IC50 of under 10 nM. On the same count and under the same terms, for `COc1cc(-c2cccc(-c3cccc(NC(=O)c4cn(C)c(=O)n(C)c4=O)c3C)c2C)cc(F)c1CN[C@@H]1CCC(=O)NC1` [Example 1.107] the value was under 10 nM. `COc1cc(-c2cccc(-c3cccc(NC(=O)c4cn(C)c(=O)n(C)c4=O)c3C)c2F)cc(F)c1CN[C@@H]1CCC(=O)NC1` [Example 1.004] displayed an IC50 of under 10 nM. Compound `COc1cc(-c2cccc(-c3cccc(NC(=O)c4cccn(C)c4=O)c3C)c2C)cc(F)c1CN[C@@H]1CCC[C@@H]1O` [Example 1.165] returned an IC50 of under 10 nM. As for `COc1cc(-c2cccc(-c3cccc(NC(=O)c4cn(C)c(=O)n(C)c4=O)c3C)c2C)cc(F)c1CNCc1ccnn1C` [Example 1.112], the IC50 lay within 10 to 1000 nM. `COc1cc(-c2cccc(-c3cccc(NC(=O)c4nn(C)c(=O)n(C)c4=O)c3C)c2C)cc(F)c1CN[C@H]1CCCNC1=O` [Example 1.060]: the IC50 is 10 to 1000 nM.

`COc1cc(-c2cccc(-c3cccc(NC(=O)c4cn(C)c(=O)n(C)c4=O)c3C)c2Cl)cc(F)c1CN[C@@H]1CNC(=O)C1` [Example 1.035] registered an IC50 of under 10 nM. Consider `COc1cc(-c2cccc(-c3cccc(NC(=O)c4cn(C)c(=O)n(C)c4=O)c3C)c2C)cc(F)c1CNC1CCOC1` (centres unmarked) [Example 1.162], for which the IC50 is under 10 nM. Regarding `COc1cc(-c2cccc(-c3cccc(NC(=O)c4cn(C)c(=O)n(C)c4=O)c3C)c2C)cc(F)c1CNC[C@H]1CCC(=O)N1` [Example 1.155], the IC50 is under 10 nM. On to `COc1cc(-c2cccc(-c3cccc(NC(=O)c4cn(C)c(=O)n(C)c4=O)c3C)c2C)cc(F)c1CNC[C@@H]1CCC(=O)N1` [Example 1.187], for which the IC50 is under 10 nM.

Still in this experiment, the particulars now being: plate-coated human PD-L1, biotinylated Human PD-1, absorbance at 450 nm.
`COc1cc(-c2cccc(-c3cccc(NC(=O)c4c[nH]c(=O)n(C)c4=O)c3C)c2Cl)cc(F)c1CN[C@H]1CCOC[C@H]1O` [Example 2.034] gave an IC50 of under 10 nM.

`COc1cc(-c2cccc(-c3cccc(NC(=O)c4cn(C)c(=O)n(C)c4=O)c3Cl)c2C)cc(F)c1CN[C@@H]1CCOC[C@H]1O` [Example 2.078] came in with an IC50 of under 10 nM. The same measure, in the same setting: under `COc1cc(-c2cccc(-c3cccc(NC(=O)c4cn(C)c(=O)n(C)c4=O)c3Cl)c2C)cc(F)c1CN[C@H]1CCOC[C@@H]1O` [Example 2.077] stands under 10 nM. `COc1cc(-c2cccc(-c3cccc(NC(=O)c4cn(C)c(=O)n(C)c4=O)c3C)c2Cl)cc(F)c1CN1CC[C@@H](O)C1` [Example 2.016] displayed an IC50 of under 10 nM. `COc1cc(-c2cccc(-c3cccc(NC(=O)c4cn(C)c(=O)n(C)c4=O)c3Cl)c2Cl)cc(F)c1CN[C@@H]1CCC(=O)NC1` [Example 2.107] returned an IC50 of under 10 nM.

Consider `COc1cc(-c2cccc(-c3cccc(NC(=O)c4cncn(C)c4=O)c3C)c2Cl)cc(F)c1CN[C@H]1CCC(=O)NC1` [Example 2.041], for which the IC50 was under 10 nM. Consider `COc1cc(-c2cccc(-c3cccc(NC(=O)c4cn(C)c(=O)n(C)c4=O)c3C)c2Cl)cc(F)c1CN[C@H]1CNC(=O)C1` [Example 2.084], for which the IC50 was under 10 nM. The same measure, in the same setting: under `COc1cc(-c2cccc(-c3cccc(NC(=O)c4cn(C)c(=O)n(C)c4=O)c3C)c2Cl)cc(F)c1CN[C@@H]1CCC[C@H]1O` [Example 2.052] stands under 10 nM; under `COc1cc(-c2cccc(-c3cccc(NC(=O)c4cn(C)c(=O)n(C)c4=O)c3C)c2Cl)cc(F)c1CN[C@H]1CCOC1` [Example 2.087], under 10 nM; under `COc1cc(-c2cccc(-c3cccc(NC(=O)c4cn(C)c(=O)n(C)c4=O)c3C)c2Cl)cc(F)c1CN[C@@H]1CCC[C@@H]1O` [Example 2.051], under 10 nM.

Values taken from patent US11266643B2, “Triaryl compounds for treatment of PD-L1 diseases” (CHEMOCENTRYX, INC., priority 2019, dated 2022).
